One may read the IC50 as the concentration needed to halve the response being measured.

This is an account of results in US20220274980A1, “PHARMACOLOGICAL INHIBITORS OF THE ENL YEATS DOMAIN” (priority 2019, published 2022).

For data set [1], the system named is MV4; 11 cells. The data set can be described thus: MV4;11 proliferation assay (total viable cell count). The data set is classed as cell-based. As to conditions: listed as Compound of Formula 69. As to the method: Proliferation assay. MV4; 11 cells were seeded at 20,000 cells/well in 96-well plates and treated with vehicle or drug, counted and reseeded at 20,000 cells/well every 3-4 days with freshly added vehicle or drug.

Data set [2] deals with T1, ENL protein (Homo sapiens, UniProt Q03111).
T1 construct: performed on endogenous ENL protein by treating wild-type OCI-AML-2 cells with drug; endogenous in cells; host or cells: OCI/AML-2
T1 sequence (Q03111 1-559): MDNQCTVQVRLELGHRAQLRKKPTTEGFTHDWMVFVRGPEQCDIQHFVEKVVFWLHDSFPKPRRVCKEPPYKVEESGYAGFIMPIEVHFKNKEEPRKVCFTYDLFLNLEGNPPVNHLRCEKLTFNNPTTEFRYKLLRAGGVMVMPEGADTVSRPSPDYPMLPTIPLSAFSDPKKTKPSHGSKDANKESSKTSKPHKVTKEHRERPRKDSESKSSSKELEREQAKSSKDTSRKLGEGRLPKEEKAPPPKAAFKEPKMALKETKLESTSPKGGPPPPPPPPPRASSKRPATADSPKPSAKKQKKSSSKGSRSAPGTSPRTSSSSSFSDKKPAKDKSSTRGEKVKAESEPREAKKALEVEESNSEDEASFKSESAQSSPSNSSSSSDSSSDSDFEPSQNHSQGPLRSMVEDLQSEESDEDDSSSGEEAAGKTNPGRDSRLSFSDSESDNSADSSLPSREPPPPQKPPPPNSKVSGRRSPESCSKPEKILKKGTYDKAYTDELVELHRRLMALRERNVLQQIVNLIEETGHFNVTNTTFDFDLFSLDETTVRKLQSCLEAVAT
In words: ENL immunoblot CETSA on endogenous ENL in OCI/AML-2 cells. It counts as cell-based. As to conditions: 10 μM. (In general: In western blotting, separated proteins are transferred to a membrane and probed.)
Description: Cellular thermal shift assay (CETSA). […] Briefly, cells were treated with drug, washed with PBS, heated to various temperatures in a thermocycler, cooled to room temperature, lysed by three rounds of freeze-thaw, and then clarified lystaes were subjected to immunoblot analysis.

For data set [3], the target named is T2, ENL(YEATS)-HiBiT (Homo sapiens, UniProt Q03111).
T2 sequence (Q03111 1-138 limits assumed): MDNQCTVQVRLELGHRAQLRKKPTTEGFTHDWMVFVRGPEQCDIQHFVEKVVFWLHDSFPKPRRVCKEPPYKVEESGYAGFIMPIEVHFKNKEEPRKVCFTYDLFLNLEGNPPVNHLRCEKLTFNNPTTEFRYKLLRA
In words: cell-based.
Description: Cellular thermal shift assay (CETSA). […] Cells were transferred to 384-well (20,000 cells per well in 20 μL) or 1,536-well (3,000 cells per well in 4 μL) plates and drug was transferred using a 100 nL pin tool for 384-well plates or acoustic transfer (Labcyte, Echo Liquid Handler) for 1,536-well plates. Luminescent detection of HiBiT was performed by combining an equal volume of Nano-Glo HiBiT Lytic Reagent (Promega, HiBiT Lytic Detection System, Cat. No. N3040) in each well. […] Briefly, cells were treated with drug, washed with PBS, heated to various temperatures in a thermocycler, cooled to room temperature, lysed by three rounds of freeze-thaw, and then clarified lystaes were subjected to immunoblot analysis.

Data set [4] addresses T3, ENL YEATS domain (association with H3K27cr) (Homo sapiens, UniProt Q03111).
T3 sequence (Q03111 1-148): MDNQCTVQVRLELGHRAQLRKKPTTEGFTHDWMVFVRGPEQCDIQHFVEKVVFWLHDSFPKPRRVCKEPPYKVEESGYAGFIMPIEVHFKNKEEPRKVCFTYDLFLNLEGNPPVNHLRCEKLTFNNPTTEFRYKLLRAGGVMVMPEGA
In words: biochemical. As to conditions: ENL (YEATS)-H3K27cr HTRF (IC50, μM).

The nature of data set [5]: Half-life in mouse liver microsomes. It counts as in vitro ADME.
Data set [6] can be described thus: Half-life in human liver microsomes. The data set is classed as in vitro ADME. Background: Liver microsomes are a subcellular fraction often used to study metabolism.
[7] abbreviates: read-out: t1/2 (min) mouse liver microsomes.
The mark [8] stands for this setting: without NADPH, read-out: t1/2 mouse (min liver microsomes (without NADPH)).
[9] abbreviates: read-out: t1/2 (min) human liver microsomes.

As to `O=C(NC1CCC1)c1ccc2nc(-c3cccc(NS(=O)(=O)NCCc4c[nH]cn4)c3)cn2c1` [Compound 69, 2-(3-((N-(2-(1H-imidazol-4-yl)ethyl)sulfamoyl)amino)phenyl)-N-cyclobutylimidazo[1,2-a]pyridine-6-carboxamide], the “inhibition of MV4:11 proliferation, total viable cell count” value in data set [1] is on record as “Inhibition of MV4:11 proliferations”. Moreover, the “stabilization of ENL protein, immunoblot analysis of CETSA” value in data set [2] was “stabilization of ENL protein”. Moreover, the IC50 in data set [3] is 8.4 µM; in data set [4] (Table 1), 0.1 µM; in data set [4] (Table 2) it was 0.1 µM.

With `CC1(C)CCN(CCNS(=O)(=O)Nc2cccc(-c3cn4cc(C(=O)NC5CCC5)ccc4n3)c2)CC1` [Compound 101], the IC50 turned out to be 0.297 µM in data set [3], 0.062 µM in data set [4] (Table 1) and 0.062 µM in data set [4] (Table 2). Further, the results for the half-life in data set [5] (setting [7]) and in data set [5] (setting [8]) were 2.29 min and 405 min, respectively.

Consider `O=C(CCN1CCCCC1)Nc1cccc(-c2cn3cc(C(=O)NC4CCC4)ccc3n2)c1` [Compound 102], for which the IC50 was found to be 0.536 µM in data set [3], 0.478 µM in data set [4] (Table 1) and 0.478 µM in data set [4] (Table 2). For the same compound, the half-life in data set [5] (setting [7]) stood at 34.1 min; in data set [5] (setting [8]), 138 min.

With `O=C(CCCCN1CCCCC1)Nc1cccc(-c2cn3cc(C(=O)NC4CCC4)ccc3n2)c1` [Compound 103], the results for the IC50 in data set [3], in data set [4] (Table 1) and in data set [4] (Table 2) were 2.2 µM, 0.696 µM and 0.696 µM, respectively. Besides, the half-life in data set [5] (setting [7]) was found to be 13.1 min; in data set [5] (setting [8]) it was 16.1 min.

Regarding `O=C(NC1CCC1)c1ccc2nc(-c3cccc(NS(=O)(=O)CCCN4CCCCC4)c3)cn2c1` [Compound 104], the IC50 in data set [3] stood at 1.03 µM; in data set [4] (Table 1) it was 0.134 µM; in data set [4] (Table 2), 0.134 µM. Moreover, the half-life in data set [5] (setting [7]) was 14.5 min.

Turning to `O=C(NC1CCC1)c1ccc2nc(-c3cccc(S(=O)(=O)NCCCN4CCCCC4)c3)cn2c1` [Compound 105], the results for the IC50 in data set [3], in data set [4] (Table 1) and in data set [4] (Table 2) were 3.24 µM, 0.84 µM and 0.84 µM, respectively. Also, the half-life in data set [5] (setting [7]) worked out at 9.7 min.

In the case of `O=C(NC1CCC1)c1ccc2nc(-c3cccc(NS(=O)(=O)CCN4CCCCC4)c3)cn2c1` [Compound 106], the IC50 in data set [3] came out at 1.24 µM; in data set [4] (Table 1), 0.027 µM; in data set [4] (Table 2) it was 0.027 µM. Besides, in data set [5] (setting [7]), the half-life is 7.83 min.

Consider `O=C(NC1CCC1)c1ccc2nc(-c3cccc(S(=O)(=O)NCCN4CCCCC4)c3)cn2c1` [Compound 107], for which the results for the IC50 in data set [3], in data set [4] (Table 1) and in data set [4] (Table 2) were 2.02 µM, 0.635 µM and 0.635 µM, respectively. In addition, the half-life in data set [5] (setting [7]) came to 6.15 min.

As for `O=C(NCCN1CCCCC1)c1cccc(-c2cn3cc(C(=O)NC4CCC4)ccc3n2)c1` [Compound 108], the half-life in data set [6] (setting [9]) is 23.8 min; in data set [6] (without NADPH, read-out: t1/2 (min) human liver microsomes (without NADPH)) it was 537 min; in data set [5] (setting [7]), 28 min. The results for the IC50 in data set [3], in data set [4] (Table 1) and in data set [4] (Table 2) were 0.63 µM, 0.124 µM and 0.124 µM, respectively.

Regarding `O=C(CCN1CCCCC1=O)Nc1cccc(-c2cn3cc(C(=O)NC4CCC4)ccc3n2)c1` [Compound 109], the IC50 in data set [3] was determined as 8.13 µM; in data set [4] (Table 1), 0.265 µM; in data set [4] (Table 2) it was 0.265 µM. Further, the half-life in data set [5] (setting [7]) stood at 3.46 min.

For `O=C(CCN1CCOCC1)Nc1cccc(-c2cn3cc(C(=O)NC4CCC4)ccc3n2)c1` [Compound 110], the results for the IC50 in data set [3], in data set [4] (Table 1) and in data set [4] (Table 2) were 5.01 µM, 0.306 µM and 0.306 µM, respectively. Besides, in data set [5] (setting [7]), the half-life was 19.9 min.

On to `O=C(CN1CCCCC1)Nc1cccc(-c2cn3cc(C(=O)NC4CCC4)ccc3n2)c1` [Compound 112], for which the IC50 in data set [3] turned out to be 1.07 µM; in data set [4] (Table 1), 0.172 µM; in data set [4] (Table 2), 0.172 µM. Also, the half-life in data set [5] (setting [7]) worked out at 6.16 min.

Turning to `O=C(NCCN1CCCCC1)Nc1cccc(-c2cn3cc(C(=O)NC4CCC4)ccc3n2)c1` [Compound 113], the half-life in data set [6] (setting [9]) is 104 min; in data set [5] (setting [7]) it was 85.9 min. The IC50 is 2.63 µM in data set [3], 0.153 µM in data set [4] (Table 1) and 0.153 µM in data set [4] (Table 2).

For `O=C(CCN1CCNCC1)Nc1cccc(-c2cn3cc(C(=O)NC4CCC4)ccc3n2)c1` [Compound 114], the half-life in data set [6] (setting [9]) worked out at 2960 min; in data set [5] (setting [7]), 323 min. Moreover, the IC50 in data set [3] was found to be 4.5 µM; in data set [4] (Table 1), 0.261 µM; in data set [4] (Table 2) it was 0.261 µM.
